# Experimental data taken from patent publication US20130109698A1, “Small Molecule Inhibitors of Functions of the HIV-1 Matrix Protein” (priority 2010, published 2013).
# Where two headings read alike, the source gives them in different places.
# Tests used:
# [1] = test system: luciferase-reporter HIV-1 NL4-3 pseudotyped with HxBc2 envelope produced in 293T cells; experiment: microbe, parasite or virus in culture
# HIV-1 IIIB = experiment: Infection of Sup-T1 cells by HIV-1 IIIB, p24 ELISA; conditions: 50 μM, three days
# [2] = Compound cytotoxicity in PBMCs (MTS); type: cell-based, human; conditions: human, read-out: TC50
# Protocol: (§1) HIV human peripheral blood mononuclear cell (PBMC) assays were performed as described previously (Lanier et al., 2010, Antimicrob Agents Chemother 54:2901-2909 and Ptak et al., 2008, Antimicrob Agents Chemother 52:1302-1317). Briefly, fresh PBMCs, seronegative for HIV and hepatitis B virus (HBV), were isolated from blood samples of the screened donors (Biological Specialty Corporation, Colmar, Pa.) by using lymphocyte separation medium (LSM; density, 1.078±0.002 g/ml; Cellgro; Mediatech, Inc.) by following the manufacturer's instructions. Cells were stimulated by incubation in 4 μg/mL phytohemagglutinin (PHA; Sigma) for 48 to 72 h. Mitogenic stimulation was maintained by the addition of 20 U/mL recombinant human interleukin-2 (rhIL-2; R&D Systems, Inc.) to the culture medium. PHA-stimulated PBMCs from at least two donors were pooled, diluted in fresh medium, and added to 96-well plates at 5×10^4 cells/well. Cells were infected (final multiplicity of infection [MOI] of ≅0.1) in the presence of nine different concentrations of test compounds (triplicate wells/concentration) and incubated for 7 days. To determine the level of virus inhibition, cell-free supernatant samples were collected for analysis of reverse transcriptase activity (Buckheit et al., 1991, AIDS Res Hum Retroviruses 7:295-302). Following removal of supernatant samples, compound cytotoxicity was measured by the addition of 3-(4,5-dimethylthiazol-2-yl)-5-(3-carboxymethoxy-phenyl)-2-(4-sulfophenyl)-2H-tetrazolium (MTS; CellTiter 96 reagent; Promega) by following the manufacturer's instructions.
# HIV-1 NL4-3 = experiment: Antiviral activity of additional compounds (Tables 6 and 7); type: cell-based; conditions: for IC50 / IC90: Human immunodeficiency virus 1, NL43
# Protocol: as §1
# HIV-1 Ba-L = experiment: as above; type: cell-based; conditions: for IC50 / IC90: Human immunodeficiency virus 1, BAL
# Protocol: as §1
# HIV-1 92BR030 = experiment: Anti-HIV efficacy in human PBMCs, reverse transcriptase activity; type: cell-based; conditions: HIV-1 92BR030, PBMCs
# Protocol: as §1
# HIV-1 93IN101 = experiment: as above; type: cell-based; conditions: HIV-1 93IN101, PBMCs
# Protocol: as §1
# SIV MAC251 = experiment: Antiviral efficacy in PBMCs, reverse transcriptase activity; type: cell-based
# HIV-1 MA = target: T1, HIV-1 MA (Human immunodeficiency virus type 1 group M subtype B, UniProt P03348); experiment: Surface plasmon resonance direct binding to immobilized HIV-1 MA; conditions: CM7 sensor chip, 10 μM (FIG. 14)
# T1 construct: His6 (N, cleaved yes); SUMO (N, cleaved yes); made in house; host or cells: Escherichia coli BL21 (DE3) Codon+-RIL
# Source text: An assay was devised to monitor the interactions of small-molecule compounds to HIV-1 MA using SPR. In this assay, HIV-1LA1 MA was immobilized to the flow cells of a CM5 sensor chip to high density (˜1.3 kRU) or a CM7 sensor chip to high density (19 kRU) using standard amine coupling. A reference surface was similarly created by immobilizing the SUMO protein or a nonspecific antibody ARC4033 (antimouse/rat interferon-γ: BioSource). In small-molecule assays, the buffering system used is important due to the low responses obtained in binding assays. […] A stock solution of the MTI compounds was prepared by dissolving in 100% dimethyl sulfoxide (DMSO) to a final concentration of 10 mM.
# To prepare the sample for analysis, 30 μL of the stock solution of the compound of the invention was added to sample preparation buffer (PBS, pH 7.2) to a final volume of 1 mL and mixed thoroughly. Preparation of analyte in this manner ensured that the concentration of DMSO was matched with that of running buffer with 3% DMSO. Lower concentrations of each compound were then prepared by two-fold serial dilutions into running buffer (PBS, 3% DMSO, pH 7.2). These compound dilutions were then injected over the control and MA surfaces at a flow rate of 30 μL min^−, for a 4-min association phase, followed by a 5-min dissociation phase.
# In one aspect, owing to the relatively fast dissociation rates of these compounds, regeneration of these surfaces was accomplished by extensive washing of the system followed by a 5 min wait phase, a second wash, and a final 15 min wait phase. To secure complete regeneration, a buffer injection (5 min^on/5 min^off) was performed before each subsequent injection of compound.
# Response to a small-molecule compound (NBD-556) specific for HIV-1 gp120 was also monitored to ensure specificity.
# Data analysis was performed using BIAEvaluation 4.0 software (GE Healthcare). The responses of a buffer injection and responses from the ARC4033-immobilized reference cell were subtracted to account for nonspecific binding. The average maximum response was generated from a minimum of 3 data sets and was used to define the standard deviation for each compound binding to the HIV-1 MA protein.
# The MTI compounds are predicted to interact with HIV-1 MA and thereby disrupt its functioning during the HIV-1 replication cycle. However, it is possible that a compound might exert its action via another mechanism not involving MA. Therefore, studies were performed to determine that the MTI compounds are directed against HIV-1 MA. The direct interaction of compounds CMPD-18, CMPD-17, CMPD-7, and CMPD-14 with HIV-1 MA was assayed using surface plasmon resonance interaction analyses. Wild-type HIV-1 MA protein was overproduced in E. coli using the pETHSUL expression system and purified using successive IMAC strategies, followed by an ion exchange chromatographic step as outlined in Materials and Methods. FIG. 6 illustrates the purification profile of HIV-1 MA. The purified MA was then immobilized onto the surface of a high-capacity CM7 sensor chip. Similarly, the monoclonal antibody ARC4033 (antimouse/rat interferon-γ; BioSource, Invitrogen, Carlsbad, Calif.) was immobilized on a CM7 sensor chip and was used to correct for background binding and instrument and buffer artifacts.
# [3] = Human immunodeficiency virus 1, PBMC
# [4] = Simian immunodeficiency virus, PBMC
smiles,measurement,setting,value
"COc1c(Cl)cc(C(=O)N2CCN(Cc3nc(-c4ccc(C)cc4)no3)CC2)cc1Cl [CMPD-3, (3,5-dichloro-4-methoxyphenyl)(4-((3-(p-tolyl)-1,2,4-oxadiazol-5-yl)methyl)piperazin-1-yl)methanone]",IC50,[1],> 100 µM
"COc1ccc(NC(C)=O)cc1NC(=O)Cn1cnc2scc(-c3ccc(C)s3)c2c1=O [CMPD-10, N-(5-acetamido-2-methoxyphenyl)-2-(5-(5-methylthiophen-2-yl)-4-oxothieno[2,3-d]pyrimidin-3(4H)-yl)acetamide]","HIV-1 replication (p24), in words",HIV-1 IIIB,"inhibited HIV-1 replication, albeit to a lesser extent"
same,IC50,[1],31 µM
"O=C1NC(c2ccccc2)(c2ccccc2)C(=O)N1CN1CCC(c2nc3ccccc3o2)CC1 [CMPD-13, 3-((4-(benzo[d]oxazol-2-yl)piperidin-1-yl)methyl)-5,5-diphenylimidazolidine-2,4-dione]","HIV-1 replication (p24), in words",HIV-1 IIIB,no effect
"O=C(NCc1ccc(CN2CCCC2)cc1)c1ccc(C2SCCCS2)cc1 [CMPD-19, 4-(1,3-dithian-2-yl)-N-(4-(pyrrolidin-1-ylmethyl)benzyl)benzamide]","HIV-1 replication (p24), in words",HIV-1 IIIB,inhibited
same,IC50,[1],26 µM
"COc1ccc(OCC(=O)NCC(=O)NCc2ccc(C(=O)N3CCCCC3)cc2)cc1 [CMPD-47, 2-(4-methoxyphenoxy)-N-(2-oxo-2-((4-(piperidine-1-carbonyl)benzyl)amino)ethyl)acetamide]",CC50 at 7 days,[2]; Tables 6 and 7 study,73.1 µM
same,Antiviral index (TC50/IC50),HIV-1 NL4-3,1.39
same,IC50,HIV-1 NL4-3,52.7 µM
same,IC90,HIV-1 NL4-3,92.7 µM
same,Antiviral index (TC50/IC50),HIV-1 Ba-L,1.44
same,IC50,HIV-1 Ba-L,50.8 µM
same,IC90,HIV-1 Ba-L,96.1 µM
"O=C(CNC(=O)COc1ccc(C(F)(F)F)cc1)NCc1ccc(C(=O)N2CCCCC2)cc1 [CMPD-48, N-(2-oxo-2-((4-(piperidine-1-carbonyl)benzyl)amino)ethyl)-2-(4-(trifluoromethyl)phenoxy)acetamide]",CC50 at 7 days,[2]; Tables 6 and 7 study,> 100 µM
same,Antiviral index (TC50/IC50),HIV-1 NL4-3,> 4.45
same,IC50,HIV-1 NL4-3,22.5 µM
same,IC90,HIV-1 NL4-3,> 100 µM
same,Antiviral index (TC50/IC50),HIV-1 Ba-L,> 4.86
same,IC50,HIV-1 Ba-L,20.6 µM
same,IC90,HIV-1 Ba-L,> 100 µM
"COc1ccccc1-c1noc(=O)n1-c1cccc(C(F)(F)F)c1 [ITI-367, 3-(2-methoxyphenyl)-4-[3-trifluoromethyl-phenyl]-1,2,4-oxadiazol-5-one, reference compound]",CC50 at 7 days,"[2]; Table 4 study, PBMCs",> 100 µM
same,Antiviral index (TC50/IC50),HIV-1 92BR030,>2.13
same,IC50,HIV-1 92BR030; [3],47 µM
same,IC90,HIV-1 92BR030; [3],> 100 µM
same,Antiviral index (TC50/IC50),HIV-1 93IN101,>2.39
same,IC50,HIV-1 93IN101; [3],41.9 µM
same,IC90,HIV-1 93IN101; [3],96 µM
same,Antiviral index (TC50/IC50),SIV MAC251,>1.33
same,IC50,SIV MAC251; [4],74.9 µM
same,IC90,SIV MAC251; [4],> 100 µM
"CC1(C)CC(NC(=O)C(=O)Nc2ccc(Cl)cc2)CC(C)(C)N1 [NBD-556, N-(4-chlorophenyl), —N′-(2,2,6,6-tetramethylpiperidin-4-yl)-oxalamide, reference compound]",direct interaction with sensor chip-immobilized HIV-1 MA,HIV-1 MA,no such interaction
